From patent US20230113501A1, “TREATMENT OF LEUKEMIAS AND LYMPHOMAS WITH COMBINATIONS OF BCL-2 INHIBITORS AND PLK1 INHIBITORS” (Cardiff Oncology, Inc., priority 2020, published 2023)

Legend:
[1] = test system: OCI-AML3 xenograft; experiment: Efficacy of onvansertib alone and in combination with venetoclax in an OCI-AML3 xenograft model (tumor volume, survival); format: in vivo, CB17 NOD.SCID mice; settings: for Average tumor volume: oral gavage; for Mean Diff. (vehicle vs. treatment), Dunnett's multiple comparisons test: tumor volumes from day 14
Description: In this example, the efficacy of onvansertib alone and in combination with venetoclax was evaluated in an OCI-AML3 xenograft model.
The OCI-AML3 cell line easily engrafts in NOD/SCID mice, maintaining the typical features of NPMc+ AML, including NPM cytoplasmic expression.
OCI-AML3 cells (DSMZ cat no: ACC 582) were cultured in RPMI supplemented with 10% FBS and 1%P/S, in a humidified incubator at 37° C. and 5% CO2. Normocin (Invivogen) was also added according to the manufacturer's recommendation to prevent mycoplasma growth.
(§1) CB17 NOD.SCID mice (female, 5 weeks old) were procured through Envigo (Strain NOD.CB17-Prkdc*scidNCrHsd). Mice were fed Teklad irradiated (sterilized) mouse diet and bedded with Teklad irradiated (sterilized) corncob bedding from Envigo (Indianapolis, Ind.). Mice were housed in Optimice carousel sterile quarters with filtered air supply in disposable cages from Animal Care Systems, Inc. (Centennial, Colo.).
On the day of implantation (Oct. 8, 2019), OCI-AML3 cells were collected and spun at 400 ×g. Media was aspirated and cells were resuspended in 50:50 *Cultrex:PBS (w/o calcium and magnesium) at a concentration of 1×10^8 cells/mL. A volume of 100 μL was injected into the right hind flank of each animal (a total of 1×10^7 cells). Filled syringes and cells were kept on ice to prevent gelling of matrigel. *Cultrex: BME, type 3, 17.24 mg/mL R&D systems Cat. #3632-005-02, Lot #40498J17
(§2) Tumor volumes were monitored, and, when mean tumor volume reached ˜200 mm^3, mice were stratified and placed into (4) treatment groups of (10) mice as outlined in Table 1.
(§3) Treatments were administered by oral gavage (polypropylene needles, Instech, Cat. FTP-20-38) daily for venetoclax for 14 days, and 5 days on 2 days off for two cycles for Onvansertib. For clarity, the combination was dosed so that venetoclax was given daily and the onvansertib was given 5 days on, 2 days off, just like the single agent groups.
Individual tumor volumes were measured by electronic caliper 2× a week.
Using tumor volumes from day 14 (the last day with all mice on study), an ordinary ANOVA test with a Dunnett's multiple comparison was performed using Prism (graphpad v. 8.3.0) (Table 4).
A survival graph was plotted (FIG. 2) and survival analysis (death=takedown for tumor burden limit) was also performed using Prism software (individual comparisons of survival curves using the Mantel-Cox test and Gehan-Breslow-Wilcoxon test shown in Table 5).

[2] = Animal health: body weight and tolerability in the OCI-AML3 xenograft study; format: in vivo, CB17 NOD.SCID mice; settings: the values are: relative body weight (ratio to day 0)
Excerpt: as §1, §2, §3
All dosing was performed without any unexpected problems noted. […] Therefore, the single agents and combination were tolerated at the tested dose and schedule.
The group average change in weight relative to day 0 of the study is shown in […]

[3] = test system: OCI-AML3 xenograft; experiment: Efficacy of onvansertib alone and in combination with venetoclax in an OCI-AML3 xenograft model (tumor volume, survival); format: in vivo, CB17 NOD.SCID mice; settings: onvansertib 40 mg/kg
[4] = patients with advanced/metastatic solid tumors, cited from earlier work
[5] = biological target: PLK1 (Homo sapiens, UniProt P53350); settings: including other PLK members; cited from earlier work
Sequence of PLK1 (P53350 whole entry): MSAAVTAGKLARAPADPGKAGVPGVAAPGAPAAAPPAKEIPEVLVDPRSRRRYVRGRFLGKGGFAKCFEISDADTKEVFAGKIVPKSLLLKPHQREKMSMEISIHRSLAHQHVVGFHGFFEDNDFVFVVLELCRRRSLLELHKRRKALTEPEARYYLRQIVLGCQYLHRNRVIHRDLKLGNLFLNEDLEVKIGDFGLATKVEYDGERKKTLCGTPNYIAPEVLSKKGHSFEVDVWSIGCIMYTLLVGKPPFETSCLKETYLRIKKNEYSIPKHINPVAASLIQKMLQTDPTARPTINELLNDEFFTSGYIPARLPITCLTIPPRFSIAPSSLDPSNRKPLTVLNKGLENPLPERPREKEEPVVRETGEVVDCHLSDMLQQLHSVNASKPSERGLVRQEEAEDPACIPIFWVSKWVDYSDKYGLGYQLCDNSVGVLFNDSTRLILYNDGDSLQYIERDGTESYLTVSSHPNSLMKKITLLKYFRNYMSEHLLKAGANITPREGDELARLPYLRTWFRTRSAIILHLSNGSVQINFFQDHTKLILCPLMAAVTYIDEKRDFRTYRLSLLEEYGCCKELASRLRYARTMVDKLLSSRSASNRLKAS

[6] = test system: AML cell lines; settings: cited from earlier work
[7] = Day 0, venetoclax 75 mg/kg, onvansertib 30 mg/kg
[8] = Day 4, venetoclax 75 mg/kg, onvansertib 30 mg/kg
[9] = Day 7, venetoclax 75 mg/kg, onvansertib 30 mg/kg
[10] = Day 11, venetoclax 75 mg/kg, onvansertib 30 mg/kg
[11] = Day 14, venetoclax 75 mg/kg, onvansertib 30 mg/kg
[12] = Day 18, venetoclax 75 mg/kg, onvansertib 30 mg/kg

SMILES: CN1CCN(c2ccc(OC(F)(F)F)c(Nc3ncc4c(n3)-c3c(c(C(N)=O)nn3CCO)CC4)c2)CC1 [Onvansertib, 1-(2-hydroxyethyl)-8-{[5-(4-methylpiperazin-1l-yl)-2-(trifluoromethoxy)phenyl]amino}-4,5-dihydro-1H-pyrazolo[4,3-h] quinazoline-3-carboxamide]
- Average tumor volume [1, 7]: 208.48 mm^3
- Average tumor volume [1, 8]: 367.54 mm^3
- Average tumor volume [1, 9]: 708.38 mm^3
- Average tumor volume [1, 10]: 980.01 mm^3
- Average tumor volume [1, 11]: 1461.86 mm^3
- Average tumor volume [1, 12]: 2269.05 mm^3
- Mean Diff. (vehicle vs. treatment), Dunnett's multiple comparisons test [1]: 960
- Significant? Dunnett's multiple comparisons test ([1]; tumor volumes from day 14, vehicle vs. treatment): Yes
- Survival, Gehan-Breslow-Wilcoxon test, Are the survival curves sig different? ([1]; vehicle vs. treatment): Yes
- Survival, Log-rank (Mantel-Cox) test, Are the survival curves sig different? ([1]; vehicle vs. treatment): No
- Survival, Log-rank (Mantel-Cox) test, Chi square ([1]; vehicle vs. treatment, death = takedown for tumor burden limit): 3.577
- Survival, Gehan-Breslow-Wilcoxon test, Chi square ([1]; vehicle vs. treatment, higher weighing for early events): 5.221
- Activity in the OCI-AML3 xenograft (conclusion) ([1]; venetoclax 75 mg/kg, onvansertib 30 mg/kg, and the combination): Activity was noted
- Tumor growth inhibition as single agent ([1]; venetoclax 75 mg/kg, onvansertib 30 mg/kg): some tumor growth inhibition
- Relative body weight (ratio to day 0) ([2]; Day 0): 1
- Relative body weight (ratio to day 0) ([2]; Day 4): 1.04
- Relative body weight (ratio to day 0) ([2]; Day 7): 1.07
- Relative body weight (ratio to day 0) ([2]; Day 11): 1.1
- Relative body weight (ratio to day 0) ([2]; Day 14): 1.13
- Relative body weight (ratio to day 0) ([2]; Day 18): 1.18
- Single agent activity in the previous study [3]: single agent activity
- Half-life [4]: 20 and 30 hours
- Primary dose-limiting toxicities ([4]; reversible, recovery within 3 weeks): neutropenia and thrombocytopenia
- Specificity for PLK1 among a panel of 296 kinases [5]: high specificity
- Concentrations that inhibited cell proliferation [6]: nanomolar concentrations

SMILES: CC1(C)CCC(CN2CCN(c3ccc(C(=O)NS(=O)(=O)c4ccc(NCC5CCOCC5)c([N+](=O)[O-])c4)c(Oc4cnc5[nH]ccc5c4)c3)CC2)=C(c2ccc(Cl)cc2)C1 [Venetoclax]
- Average tumor volume [1, 7]: 203.78 mm^3
- Average tumor volume [1, 8]: 441.01 mm^3
- Average tumor volume [1, 9]: 861.05 mm^3
- Average tumor volume [1, 10]: 1362.15 mm^3
- Average tumor volume [1, 11]: 2110.23 mm^3
- Average tumor volume [1, 12]: 2856.33 mm^3
- Mean Diff. (vehicle vs. treatment), Dunnett's multiple comparisons test [1]: 311.6
- Relative body weight (ratio to day 0) ([2]; Day 0): 1
- Relative body weight (ratio to day 0) ([2]; Day 4): 1.03
- Relative body weight (ratio to day 0) ([2]; Day 7): 1.07
- Relative body weight (ratio to day 0) ([2]; Day 11): 1.09
- Relative body weight (ratio to day 0) ([2]; Day 14): 1.12
- Relative body weight (ratio to day 0) ([2]; Day 18): 1.15
